Tests used:
COX-1 = COX-1 (Homo sapiens, UniProt P23219); assay: Assay of COX-1 activity from U937 cell microsomes; format: biochemical; set-up: Assay of COX-1 Activity from U937 cell microsomes; endogenous in cells; host or cells: U937 cells, 100,000×g microsomal pellet; details: PGE2, read-out: COX-1 (IC50 μM) U-937
Protocol: Assay of COX-1 Activity from U937 cell microsomes
U 937 cells are pelleted by centrifugation at 500×g for 5 min and washed once with phosphate-buffered saline and repelleted. […] The cell suspension is sonicated 4 times for 10 sec and is centrifuged at 10,000×g for 10 min at 4° C. The supernatant is centrifuged at 100,000×g for 1 hr at 4° C. The 100,000×g microsomal pellet is resuspended in 0.1 M Tris-HCl, pH 7.4, 10 mM EDTA to approximately 7 mg protein/ml and stored at -80° C.
Microsomal preparations are thawed immediately prior to use, subjected to a brief sonication, and then diluted to a protein concentration of 125 μg/ml in 0.1 M Tris-HCl buffer, pH 7.4 containing 10 mM EDTA, 0.5 mM phenol, 1 mM reduced glutathione and 1 μM hematin. Assays are performed in duplicate in a final volume of 250 pl. Initially, 5 µl of DMSO vehicle or drug in DMSO are added to 20 μl of 0.1 M Tris-HCl buffer, pH 7.4 containing 10 mM EDTA in wells of a 96-deepwell polypropylene titre plate. 200 μl of the microsomal preparation are then added and pre-incubated for 15 min at room temperature before addition of 25 μl of […] in 0.1 M Tris-HCl and 10 mM EDTA, pH 7.4. Samples are incubated for 40 min at room temperature and the reaction is stopped by the addition of 25 pl of 1 N HCl. Samples are neutralized with 25 μl of 1 N NaOH prior to quantitation of PGE2 content by radioimmunoassay (Dupont-NEN or Amersham assay kits). Cyclooxygenase activity is defined as the difference between PGE2 levels in samples incubated in the presence of arachidonic acid and ethanol vehicle.
In the assay, inhibition is determined by measuring the amount of prostaglandin E2 (PGE2) synthesized in the presence of arachidonic acid, cyclooxygenase-I or cyclooxygenase-2 and a putative inhibitor.

COX-2 = target: T1, COX-2 (Homo sapiens, UniProt P35354); assay: Human whole blood assay, COX-2 (LPS-induced PGE2 production); format: cell-based; set-up: incubation of human whole blood with LPS, which induces COX-2; from tissue; host or cells: fresh human whole blood (volunteers), incubated with LPS; details: LPS-induced PGE2, 24 hours at 37° C, read-out: COX-2 (IC50 μM) HWB
T1 sequence (P35354 18-604): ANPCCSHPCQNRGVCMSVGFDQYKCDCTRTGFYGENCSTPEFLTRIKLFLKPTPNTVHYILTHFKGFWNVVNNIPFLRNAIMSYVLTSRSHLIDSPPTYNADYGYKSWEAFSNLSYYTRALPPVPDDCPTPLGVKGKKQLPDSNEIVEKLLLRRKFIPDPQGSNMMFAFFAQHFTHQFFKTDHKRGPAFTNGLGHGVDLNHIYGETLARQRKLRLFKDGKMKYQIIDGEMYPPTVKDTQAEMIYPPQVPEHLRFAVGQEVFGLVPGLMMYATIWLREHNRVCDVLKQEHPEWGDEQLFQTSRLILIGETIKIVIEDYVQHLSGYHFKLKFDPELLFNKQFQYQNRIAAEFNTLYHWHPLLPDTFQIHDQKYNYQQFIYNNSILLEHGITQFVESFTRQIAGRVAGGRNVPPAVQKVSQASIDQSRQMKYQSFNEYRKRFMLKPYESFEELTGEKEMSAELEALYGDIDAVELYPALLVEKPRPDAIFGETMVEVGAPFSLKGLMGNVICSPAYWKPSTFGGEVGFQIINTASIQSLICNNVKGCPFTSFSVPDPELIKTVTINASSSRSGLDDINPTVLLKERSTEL
Description: As well, platelets in whole blood contain a large amount of the COX-1 enzyme. Immediately following blood clotting, platelets are activated through a thrombin-mediated mechanism. This reaction results in the production of thromboxane B2 (TxB2) via activation of COX-1. Thus, the effect of test compounds on TxB2 levels following blood clotting can be examined and used as an index for COX-1 activity. Therefore, the degree of selectivity by the test compound can be determined by measuring the levels of PGE2 after LPS induction (COX-2) and […] following blood clotting (COX-1) in the same assay.
A. COX-2 (LPS-induced PGE2 production)
Fresh blood is collected in heparinized tubes by venipuncture from both male and female volunteers. The subjects have no apparent inflammatory conditions and have not taken any NSAIDs for at least 7 days prior to blood collection. Plasma is immediately obtained from a 2mL blood aliquot to use as blank (basal levels of PGE2). The remaining blood is incubated with LPS (100 μg/ml final concentration, Sigma Chem, #L-2630 from E. coli; diluted in 0.1% BSA (Phosphate buffered saline) for 5 minutes at room temperature. Five hundred μL aliquots of blood are incubated with either 2μL of vehicle (DMSO) or 2 μL of a test compound at final concentrations varying from 10nM to 30 μM for 24 hours at 37° C. At the end of the incubation, the blood is centrifuged at 12,000×g for 5 minutes to obtain plasma. A 100 μL aliquot of plasma is mixed with 400 μL of methanol for protein precipitation. The supernatant is obtained and is assayed for PGE2 using a radioimmunoassay kit (Amersham, RPA#530) after conversion of PGE2 to its methyl oximate derivative according to the manufacturer's procedure. […]

Chain of COX-1 (P23219 24-599): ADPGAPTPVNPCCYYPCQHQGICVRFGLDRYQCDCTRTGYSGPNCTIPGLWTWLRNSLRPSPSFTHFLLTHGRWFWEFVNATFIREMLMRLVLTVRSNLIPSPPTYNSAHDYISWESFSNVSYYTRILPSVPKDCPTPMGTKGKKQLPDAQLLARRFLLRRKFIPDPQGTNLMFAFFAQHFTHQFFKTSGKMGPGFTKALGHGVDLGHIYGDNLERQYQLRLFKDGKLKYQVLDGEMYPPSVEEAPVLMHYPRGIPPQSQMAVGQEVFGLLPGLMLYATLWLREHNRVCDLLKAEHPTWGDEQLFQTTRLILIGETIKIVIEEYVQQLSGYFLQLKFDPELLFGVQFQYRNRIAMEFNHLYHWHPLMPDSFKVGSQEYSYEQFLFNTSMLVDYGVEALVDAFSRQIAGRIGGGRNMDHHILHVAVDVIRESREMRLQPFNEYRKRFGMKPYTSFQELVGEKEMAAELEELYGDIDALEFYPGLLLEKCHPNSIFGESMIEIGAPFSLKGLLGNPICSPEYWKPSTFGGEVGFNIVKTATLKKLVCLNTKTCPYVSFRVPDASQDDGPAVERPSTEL

- IC50 (COX-1): > 10 µM
- IC50 (COX-2): 1.5 µM
Structure (SMILES): CS(=O)(=O)c1ccc(-c2cnn(Cc3ccccc3)c(=O)c2-c2cccnc2)cc1 [Example 28, 2-Benzyl-5-(4-methylsulfonyl)phenyl-4-(3-pyridyl)-2H-pyridazin-3-one]

Reference: patent US6004960A, “Pyridazinones as inhibitors of cyclooxygenase-2” (Merck Frosst Canada, Inc., priority 1998, dated 1999)
